Calls of active or inactive are those of the source.

The nature of data set [1]: inhibitors of intracellular T. cruzi replication, confirmation, NIH3T3 host cells, beta-gal luminescence (AID 2044).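 Also: intracellular parasites grown in NIH/3T3 mouse fibroblasts as host cells; luminescent beta-galactosidase reporter signal from transgenic T. cruzi replicating inside host cells; inhibitors lower the luminescence signal.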 The data set is classed as functional, cell-based.
Data set [2] can be described thus: cytotoxicity toward NIH3T3 fibroblasts, dose response, counter-screen, cell-based, ATP luminescence, mouse fibroblasts (AID 2010).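 Also: cells exposed to compound for about 90 hours before reading.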 The data set is classed as functional.
The test system of data set [3] is INS1. In words: beta cell apoptosis inhibitors, cytokine rescue, dose response, luminescence, retest (AID 449756).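 Also: cell death triggered by IL-1 beta plus TNF-alpha plus IFN-gamma mixture; protective hits raise ATP signal compared with cytokine alone wells.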 The class given is functional, cell-based. Conditions: Rattus norvegicus.
For data set [4], the target named is Cytochrome P450 3A4 (Homo sapiens, UniProt P08684).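 Also: CYP3A4 tested as one member of a cytochrome P450 panel screen.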
Cytochrome P450 3A4, sequence (P08684 whole entry): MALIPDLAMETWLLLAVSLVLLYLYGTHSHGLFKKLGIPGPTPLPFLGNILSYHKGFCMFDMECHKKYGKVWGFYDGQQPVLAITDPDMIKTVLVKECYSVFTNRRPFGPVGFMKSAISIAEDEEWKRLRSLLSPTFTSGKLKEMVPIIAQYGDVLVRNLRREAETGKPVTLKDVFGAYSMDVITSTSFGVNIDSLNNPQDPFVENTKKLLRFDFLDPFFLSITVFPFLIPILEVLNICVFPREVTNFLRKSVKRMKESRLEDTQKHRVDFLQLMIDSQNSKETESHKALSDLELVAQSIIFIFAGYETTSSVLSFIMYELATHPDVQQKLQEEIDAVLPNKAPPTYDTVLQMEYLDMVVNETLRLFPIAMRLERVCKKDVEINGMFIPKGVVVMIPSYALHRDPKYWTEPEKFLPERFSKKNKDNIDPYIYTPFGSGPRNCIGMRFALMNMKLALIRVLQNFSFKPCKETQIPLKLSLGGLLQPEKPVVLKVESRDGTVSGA
For data set [5], the target named is Cytochrome P450 2C19 (Homo sapiens, UniProt P33261). In words: Cytochrome panel assay with activity outcomes. Panel member name: p450-cyp2c19 Compounds with AC50 equal or less than 10 uM are considered active. The class given is functional.
Cytochrome P450 2C19, sequence (P33261 whole entry): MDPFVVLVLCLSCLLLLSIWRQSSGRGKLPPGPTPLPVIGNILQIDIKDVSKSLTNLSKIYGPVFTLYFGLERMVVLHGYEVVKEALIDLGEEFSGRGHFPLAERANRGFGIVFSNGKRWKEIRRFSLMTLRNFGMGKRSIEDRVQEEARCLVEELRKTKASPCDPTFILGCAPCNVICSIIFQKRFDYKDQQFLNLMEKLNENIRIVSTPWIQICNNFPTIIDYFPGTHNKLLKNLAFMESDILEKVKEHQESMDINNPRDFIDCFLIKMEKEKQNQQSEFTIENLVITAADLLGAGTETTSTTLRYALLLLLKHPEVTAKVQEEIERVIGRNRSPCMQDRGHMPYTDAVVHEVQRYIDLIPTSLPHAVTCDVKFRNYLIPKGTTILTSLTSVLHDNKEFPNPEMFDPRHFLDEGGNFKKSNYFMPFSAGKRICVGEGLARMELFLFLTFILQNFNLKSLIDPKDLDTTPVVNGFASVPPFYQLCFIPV
Data set [6] is described as follows: Luminescence Cell-Based Dose Retest to Confirm Inhibitors of Cancer Stem Cells. [Related pubchem assays (depositor defined):AID2717, AID2721]. The data set is classed as functional. Conditions: Homo sapiens.
Data set [7] has as its target Cytochrome P450 2D6 (Homo sapiens, UniProt P10635).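 Also: CYP2D6 member of a cytochrome P450 panel assay.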

Cytochrome P450 2D6, sequence (P10635 whole entry): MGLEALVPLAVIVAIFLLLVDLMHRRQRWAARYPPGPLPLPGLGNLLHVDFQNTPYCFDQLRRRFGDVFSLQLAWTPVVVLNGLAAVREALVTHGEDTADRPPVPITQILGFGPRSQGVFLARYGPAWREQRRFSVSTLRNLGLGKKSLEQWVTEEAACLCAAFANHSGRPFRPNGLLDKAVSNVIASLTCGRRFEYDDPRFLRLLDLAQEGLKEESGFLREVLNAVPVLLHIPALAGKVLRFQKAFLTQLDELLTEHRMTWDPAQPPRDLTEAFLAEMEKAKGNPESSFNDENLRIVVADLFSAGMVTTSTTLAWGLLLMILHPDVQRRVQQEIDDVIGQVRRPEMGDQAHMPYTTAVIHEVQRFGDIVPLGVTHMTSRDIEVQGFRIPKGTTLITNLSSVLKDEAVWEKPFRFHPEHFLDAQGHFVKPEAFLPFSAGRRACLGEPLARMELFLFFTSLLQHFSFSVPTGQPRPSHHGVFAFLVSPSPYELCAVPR

In general, EC50 refers to the concentration needed to bring the measured effect to its halfway point. In the case of `O=C(CCCCN1CCCCC1)c1ccc2c(c1)Cc1ccccc1-2`, the EC50 in data set [1] is 1.9 µM (active); in data set [2] it was 13.6 µM (active).

The AC50 is the midpoint of the concentration-response curve, whichever way the signal moves. On to `CC(=O)c1ccc(OCc2cc(C(=O)N3CCCCC3c3cccnc3)no2)cc1` (stereo not given), for which the AC50 in data set [3] was 14.3 µM (active).

As to `O=C(OCc1nc2ccccc2s1)c1ccc(Br)s1`, the AC50 in data set [4] was 25.1 µM (inconclusive).

`CC(=O)NCCNc1nc(-c2ccc3c(c2)OCO3)nc2ccccc12`: in data set [5] (read-out: AC50), the AC50 was 39.8 µM (inconclusive).

`Clc1ccc(Cl)c(OCCCCN2CCNCC2)c1`: the EC50 in data set [1] is 3.42 µM (active); in data set [2] it was 9.24 µM (active). In addition, the AC50 in data set [6] is 2.41 µM (active).

For the compound `O=C(Cn1cnc([N+](=O)[O-])n1)N/N=C/c1ccc2ccccc2c1`, the EC50 in data set [1] is 0.333 µM (active); in data set [2], > 60 µM (not active).

On to `Cc1nc2cnc(N3CCNCC3)nc2n(Cc2cccs2)c1=O`, for which, in data set [7], the AC50 was 12.6 µM (inconclusive).

Turning to `CC(=O)c1ccc(NC(=O)C(Cc2ccccc2)NC(=O)c2ccco2)cc1` (stereo not given), the AC50 in data set [4] was 28.2 µM (inconclusive).

Turning to `CN(C)CCCn1c2c(c(SCC(=O)Nc3cccc4ccccc34)nc1=O)CCC2`, the EC50 in data set [1] was 2.04 µM (active); in data set [2] it was > 60 µM (not active).

On to `COc1cccc(NC(=O)Nc2ccc(C)c(Cl)c2)c1`, for which the EC50 in data set [1] is 2.41 µM (active); in data set [2] it was > 30 µM (not active).

Regarding `CCCCCc1nc2c(C#N)c(-c3ccc(Cl)cc3)ccn2n1`, the AC50 in data set [4] is 25.1 µM (inconclusive).

`COc1cc(Br)c(/C=C/c2ccc3cccc(O)c3n2)cc1OC`: the values for the EC50 in data set [1] and in data set [2] were 0.831 µM (active) and > 60 µM (not active), respectively.

For `O=C(CN1CCN(c2ccc(O)cc2)CC1)Nc1ccc(SC(F)F)cc1`, the AC50 in data set [6] was 6.49 µM (active).

Take `Cc1ccc(OCC(O)Cn2c3ccccc3c3ccccc32)cc1` (stereo not given): the AC50 in data set [6] is 4.84 µM (active).

As for `C=C[C@]1(C)C[C@H](OC(=O)CO)[C@]2(C)C3C(=O)CC[C@]3(CC[C@H]2C)[C@H](C)[C@H]1O` (stereo not given in full), the AC50 in data set [4] is 3.16 µM (inconclusive).

`c1ccc(-c2cccc(N3CCC4(CCNCC4)CC3)c2)cc1`: in data set [7], the AC50 is 39.8 µM (inconclusive).

In the case of `O=S(=O)(c1cccc(-c2nnc(-c3ccc(Br)cc3)o2)c1)N1CCCCCC1`, the AC50 in data set [5] (read-out: AC50) was 11.2 µM (inconclusive).

For the compound `O=C(NCCCN1CCCC1=O)c1ccc([N+](=O)[O-])s1`, the EC50 is 0.534 µM (active) in data set [1] and > 30 µM (not active) in data set [2].

On to `c1ccc(Nc2cccc3c(Nc4ccccc4)cccc23)cc1`, for which the concentration giving a half-maximal response (EC50) in data set [1] was 1.14 µM (active); in data set [2], > 60 µM (not active).

On to `COc1ccc(CN2CCN(C(=O)C3CCC(CNS(=O)(=O)c4ccc(C)cc4)CC3)CC2)c(OC)c1OC` (stereo not given), for which the EC50 is 0.404 µM (active) in data set [1] and > 60 µM (not active) in data set [2].

Take `CN(CC(=O)Nc1ccc(S(=O)(=O)N2CCCC2)cc1)Cc1ccc(Cl)cc1`: the values for the EC50 in data set [1] and in data set [2] were 1.58 µM (active) and > 60 µM (not active), respectively.

Consider `CNC(=S)N(Cc1cccs1)Cc1cc2cc(OC)c(OC)cc2nc1O`, for which the AC50 in data set [3] is 99.3 µM (active).

With `COc1ncc2nc(-c3ccccc3)c(=O)n(C[C@H]3CCCO3)c2n1`, the AC50 in data set [4] is 25.1 µM (inconclusive).

As for `CC[C@H]1CN2CCc3cc(OC)c(OC)cc3[C@H]2C[C@@H]1C[C@H]1NCCc2c1[nH]c1ccc(O)cc21`, the AC50 in data set [7] was 3.98 µM (inconclusive).

`Cc1[nH]n(C(C)(C)C)c(=O)c1Sc1ccc(Cl)cc1`: the EC50 in data set [1] is 16.3 µM (active); in data set [2] it was > 60 µM (not active).

For `NC(=O)CC(NC(=O)c1ccc(Br)cc1)c1ccc(N2CCCCCCC2)c([N+](=O)[O-])c1` (stereo not given), the concentration at half-maximal activity (AC50) in data set [6] is 8.2 µM (active).

Consider `CCC(CO)Oc1cc(NCc2ccc(C)c(C)c2)c2ncn(C(C)C)c2c1` (stereo not given), for which the AC50 in data set [3] was 5.86 µM (active).

For `Cn1c([N+](=O)[O-])cnc1CN1CCN(CCO)CC1`, the AC50 result in data set [5] is given as “inconclusive”.

As to `CCc1ccc(-c2csc(NC(=O)C3CCCO3)c2C(=O)OC(C)C)cc1` (stereo not given), in data set [4], the AC50 was 28.2 µM (inconclusive).

As for `CCC1CCCCN1Cc1cc(OC)c(O)c([N+](=O)[O-])c1` (stereo not given), the AC50 in data set [7] is 14.1 µM (inconclusive).

For the compound `COc1cccc(C(=O)N(C)c2nnc(-c3ccncc3)s2)c1`, the AC50 in data set [4] was 6.31 µM (inconclusive).

Consider `CN(C(=O)COc1cccc(Br)c1)C1CCS(=O)(=O)C1` (stereo not given), for which the AC50 in data set [5] (read-out: AC50) was 22.4 µM (inconclusive).

For the compound `C=CCc1cccc(/C=N/NC(=O)c2ccccc2OC)c1O`, the figures for the EC50 in data set [1] and in data set [2] were 2.2 µM (active) and > 60 µM (not active), respectively. Besides, the AC50 in data set [3] was 3.06 µM (active).

With `CCC(=O)Nc1nc(C)c(-c2csc(Nc3cccc(O)c3)n2)s1`, the AC50 in data set [6] was 0.188 µM (active).

On to `COc1cc(C)ccc1OCCOc1cc(C)ccc1Cl`, for which, in data set [5] (read-out: AC50), the AC50 is 5.62 µM (inconclusive).

Turning to `COCCN1CN=C(Nc2nc3ccccc3s2)NC1`, in data set [7], the concentration at half-maximal activity (AC50) was 11.2 µM (inconclusive).

In the case of `CCNS(=O)(=O)c1ccc(NC(=O)c2cc(C(F)(F)F)nn2C)cc1`, the AC50 in data set [4] is 6.31 µM (inconclusive).

As for `NC1=NC(Nc2ccc(F)cc2F)=NC2(CCCCC2)N1`, the AC50 in data set [5] (read-out: AC50) is 3.16 µM (inconclusive).

Turning to `Cc1ccc(/C=N/NC(=O)CNC(=O)COc2ccccc2)o1`, in data set [6], the AC50 is > 195 µM (inactive).

As for `CN(C)c1ccc(/C=C(\C#N)C(=O)OCC(=O)N(C)C2CCS(=O)(=O)C2)cc1` (stereo not given), the AC50 in data set [3] is > 260 µM (inactive).

`O=C(Nc1ncc(S(=O)(=O)c2ccc([N+](=O)[O-])cc2)s1)c1ccc2ccccc2c1`: the EC50 in data set [1] is 0.128 µM (active); in data set [2], > 60 µM (not active). The AC50 in data set [6] was 2.11 µM (active).

Consider `O=C(NC(=S)NCc1cccnc1)c1cccc2ccccc12`, for which the EC50 in data set [1] was 0.505 µM (active); in data set [2], > 60 µM (not active).

On to `Cn1nnnc1SCCNCc1cccc2ccccc12`, for which the EC50 in data set [1] and in data set [2] was > 60 µM (not active) in each case.

On to `CCC(CO)Oc1cc(NCc2ccc(Cl)cc2Cl)c2ncn(C(C)C)c2c1` (stereo not given), for which the AC50 in data set [6] is 8.14 µM (active).

For `O=C(NC1(Cc2ccccc2)CCN(CCCc2ccccc2)C1=O)c1ccccc1` (stereo not given), the AC50 in data set [3] was 2.75 µM (active).

On to `O=C(O)Cc1c[nH]cn1` [IMIDAZOLE ACETIC ACID], for which the AC50 in data set [4] is 31.6 µM (inconclusive).

Regarding `O=C(COc1ccc(Br)cc1Cl)NC1CCN(Cc2ccccc2)CC1`, the EC50 in data set [1] was 0.165 µM (active); in data set [2], > 60 µM (not active).

On to `Cc1ccc(NC(=O)NCC2CCN(Cc3cccc(Cl)c3)CC2)cc1Cl`, for which the EC50 was 1.03 µM (active) in data set [1] and > 60 µM (not active) in data set [2]. In addition, the AC50 in data set [6] is 8.54 µM (active); in data set [3], 12.8 µM (active).

For `CN(C)C(=O)c1ccc(-c2ccc3ncnc(Nc4ccc(F)cc4)c3c2)cc1`, the AC50 in data set [5] (read-out: AC50) is 25.1 µM (inconclusive).

For the compound `COCC(=O)N1CCC2(CCCN(c3cccc(-c4ccccc4)c3)C2)CC1`, the AC50 was 39.8 µM (inconclusive) in data set [7] and 12.6 µM (inconclusive) in data set [4].

Take `Oc1ccccc1CNCc1ccccc1O`: in data set [7], the AC50 is 3.16 µM (inconclusive).

For `CCCCCCOc1ccc(OC(=O)c2cccnc2)cc1`, the AC50 in data set [6] is 3.33 µM (active).

Consider `COc1ccccc1N1CCNCC1`, for which the AC50 entry in data set [5] is “inconclusive”.

Turning to `CSc1nc2ccccc2cc1/C=C(\C#N)c1ccc(Cl)cc1Cl`, the AC50 in data set [7] is 1.58 µM (inconclusive).

With `O=C1CCCC2=C1C(c1ccc(OS(=O)(=O)c3ccc(Cl)cc3)cc1)C1=C(CCCC1=O)O2`, in data set [7], the AC50 was 12.6 µM (inconclusive).

For the compound `C/C(Cn1cnc([N+](=O)[O-])n1)=N/NC(=O)COc1ccccc1Cl`, the results for the EC50 in data set [1] and in data set [2] were 0.154 µM (active) and > 60 µM (not active), respectively.

As for `COc1ccc(S(=O)(=O)N2CCC(N3CCCCC3)CC2)cc1`, the AC50 in data set [5] (read-out: AC50) is 39.8 µM (inconclusive).

For the compound `CN(C)c1ccc(-c2nccc(NCCN3CCOCC3)n2)cc1`, the figures for the AC50 in data set [5] (read-out: AC50), in data set [7] and in data set [4] were 15.8 µM (inconclusive), 39.8 µM (inconclusive) and 25.1 µM (inconclusive), respectively.

With `COCCCn1c(=N)c(C(N)=S)cc2c(=O)n3cccc(C)c3nc21`, the EC50 is 1.34 µM (active) in data set [1] and > 60 µM (not active) in data set [2].

Regarding `COc1ccc(C(=O)c2c(C)c3ccccc3n2CC(O)CNC(C)C)cc1` (stereo not given), in data set [3], the AC50 was 30.1 µM (active).

For the compound `Nc1ccc(N2CCN(Cc3ccccc3Cl)CC2)c(Cl)c1`, the AC50 in data set [6] was 2.45 µM (active).

As to `O=c1c2ccccc2[nH]c(=S)n1CCCN1CCC(Cc2ccccc2)CC1`, the values for the EC50 in data set [1] and in data set [2] were 0.161 µM (active) and > 60 µM (not active), respectively.

The values above are taken from ChEMBL document CHEMBL1201862, “PubChem BioAssay data set” (2004).
